Laboratory results reported in ChEMBL document CHEMBL1158230, “Cytotoxicity and mode of action of aeroplysinin-1 and a related dienonefrom the sponge Aplysina aerophoba” (J Nat Prod, 1996).

Experiments:
Assay type in all cases: functional, cell-based
[1] = Cytotoxicity against buthionine sulfoximine-pretreated mouse EN19 cells after 3 days by MTT assay
[2] = Cytotoxicity against mouse EN19 cells after 3 days by MTT assay; conditions: EN19, 72 h
[3] = Cytotoxicity against buthionine sulfoximine-pretreated mouse EN19 cells after 2 hrs by MTT assay
[4] = Cytotoxicity against human HeLaS3 cells after 4 days by MTT assay; conditions: HeLa S3, 96 h
[5] = Cytotoxicity against human HeLaS3 cells after 2 weeks by clonogenic assay; conditions: HeLa S3, 336 h
[6] = Cytotoxicity against buthionine sulfoximine-pretreated human HeLaS3 cells after 4 days by MTT assay; conditions: HeLa S3
[7] = Cytotoxicity against mouse EN19 cells after 1 week by clonogenic assay; conditions: EN19, 168 h
[8] = Cytotoxicity against mouse EN19 cells after 2 hrs by MTT assay; conditions: EN19, 2 h
[9] = Cytotoxicity against human HeLaS3 cells after 2 hrs by MTT assay; conditions: HeLa S3, 2 h
[10] = Cytotoxicity against buthionine sulfoximine-pretreated human HeLaS3 cells after 2 hrs by MTT assay; conditions: HeLa S3

SMILES	IC50 [1] [µM]	IC50 [2] [µM]	IC50 [3] [µM]	IC50 [4] [µM]	IC50 [5] [µM]	IC50 [6] [µM]	IC50 [7] [µM]	IC50 [8] [µM]	IC50 [9] [µM]	IC50 [10] [µM]
COC1=C(Br)[C@H](O)[C@](O)(CC#N)C=C1Br	0.7	6.2	1.1	5.6	27.5	2.8	37	8.2	18.8	5.4
NC(=O)CC1(O)C=C(Br)C(=O)C(Br)=C1 [VERONGIAQUINOL]	5.4	26.1	3.9	15.6	58	10.4	74.3	46.1	31.9	15.7
